Measured values from patent publication US20260000754A1, “NANOPARTICLES AS CARRIER-SYSTEM FOR ADJUVANTS/ANTIGENS” (UNIVERSITAT HEIDELBERG, priority 2020, published 2026).

Experiments:
[1] = Stability measurement in human serum (HEK-Blue hTLR3 cell readout); format: in vitro ADME; conditions: 20% human serum, 37° C., 1 μg poly(I:C)/mL
[2] = Stability measurement in bovine serum (HEK-Blue hTLR3 cell readout); format: in vitro ADME; conditions: 60 minutes at 37° C., 5, 10 and 20% FBS
Excerpt: HEK-Blue™ hTLR3 Cells are designed to measure the stimulation of […] monitoring the activation of NF-kB. HEK-Blue™hTLR3Cells were obtained by co-transfection of the hTLR3 gene and an optimized secreted embryonic alkaline phosphatase (SEAP) reporter gene placed under the control of an NF-kB and AP-1-inducible promoter intoHEK293 cells. Stimulation with a TLR3 ligand activates NF-kB and AP-1 which induce the production of SEAP. Levels of SEAP can be easily determined with HEK-Blue™ Detection, a cell culture medium that allows for real-time detection of SEAP. The hydrolysis of the substrate by SEAP produces a purple/blue color that can be easily detected with the naked eye or measured with a 96 well plate reader (Invivogen).
The serum was used in concentrations of 5, 10 and 20%. A serum concentration of 20% corresponds quite well to the composition of peripheral lymph.
The poly(I:C) payload at SiO2—Arg in this case was about 2.5%. After exposure to FBS 20 μL of the medium were taken and added to 180 μL HEK-Blue™ hTLR3 cells in HEK-Blue™ Detection medium. This mixture was incubated for 13 hours at 37° C. and the plate was analyzed in a 96 well plate reader (Tecan Reader, Type: Infinite M200 Pro).

[3] = Solubility enhancement of epitopes (solubility in water); format: physicochemical
Excerpt: On the N-terminal site of the enzymatically cleaved linker the addition of polar amino acids can be used to enhance the solubility of the whole peptide. […] The use in a human vaccine is difficult. In animal studies researchers dissolve it in DMSO. The solubility after e.g. subcutaneous injection is questionable: dilution might result in precipitation of large peptide particles, which is very unfavorable for transport to lymphnodes.
According to the invention the epitope […] was enlarged on the N-terminal site with the enzymatic cleavable linker Val-Cit and the cationic solubilizing sequence Lys-Lys-Lys, leading to • KKKV-Cit-[…].
After endosomal and/or cytosolic cleavage by cathepsin B the native HPV 16 E782-90 is released. Also the remaining KKKV-Cit is not immunogenic, due to the fact it's too short to be presented at any MHC I or MHC II.

DC2.4 cells = assay: MHC I cross presentation of OVA257-264 in DC2.4 cells; format: cell-based, murine; conditions: 6 h incubation with 5 μM solution, with or without SiO2—PO3H2; 25-D1.16 antibody, flow cytometry
Method: In the experiment, the OVA257-264 presentation efficacy after incubation of 5·10^4 DC2.4 cells with 5 μM solutions of full length protein (OVA=Ovalbumin), N- and C-terminal elongated epitope (OVA247-264A5K, a so called synthetic long peptide (SLP)), N-terminal elongated epitope with a Cathepsin B cleavable sequence (exemplary shown RW-Cit-OVA257-264) or native epitope (OVA 257-264), each with and without nanoparticles, was compared. […] After an incubation time of 6 h, the test substances are removed by washing with phosphate-buffered saline (PBS). In the next step, the cells were incubated with CD16/CD32 antibody in order to block the non-specific binding of the detection antibody to the Fc (Fragment, crystallizable) receptor of the cells. After incubation with 25-D1.16 antibody, the amount of cross-presented OVA257-264 was quantified by flow cytometry.
FIG. 16: OVA257-264 MHC I presentation after 6 h incubation of H2-Kb positive cells with 5 μM solution of native or elongated OVA257-264 epitope or full length OVA protein with or without SiO2—PO3H2. Quantification was carried out by flow cytometry after labeling with 25-D1.16 detection antibody.

Compound | solubility in water [3] | OVA257-264 MHC I presentation (DC2.4 cells) | other results
polyinosinic: polycytidylic acid [poly(I:C)] | – | – | % of initial concentration after 60 minutes [1]: 18%; calculated half-life [1]: 24.2 min; stability in fetal bovine serum [2]: clear signs of degradation at higher serum concentrations
CC[C@H](C)[C@H](NC(=O)CNC(=O)[C@H](CC(C)C)NC(=O)[C@@H](NC(=O)CNC(=O)[C@H](CCSC)NC(=O)[C@H](CC(C)C)NC(=O)[C@@H](N)CC(C)C)[C@@H](C)O)C(=O)N[C@H](C(=O)O)C(C)C | very bad | – | –
CC[C@H](C)[C@H](NC(=O)CNC(=O)[C@H](CC(C)C)NC(=O)[C@@H](NC(=O)CNC(=O)[C@H](CCSC)NC(=O)[C@H](CC(C)C)NC(=O)[C@H](CC(C)C)NC(=O)[C@H](CCCNC(N)=O)NC(=O)[C@@H](NC(=O)[C@H](CCCCN)NC(=O)[C@H](CCCCN)NC(=O)[C@@H](N)CCCCN)C(C)C)[C@@H](C)O)C(=O)N[C@H](C(=O)O)C(C)C | excellent | – | –
RW-Cit-OVA257-264 | – | presented in significant amounts | –
SIINFEKL [OVA257-264] | – | presented in significant amounts | –
